Tests used:
[1] = system: autochthonous BRAF^V600EPTEN^−/− melanoma model; test: Autochthonous (transgenic) BRAFV600EPTEN−/− melanoma model treated with anti-PD-1 ± MCC950 or anti-HSP70 antibody; assay type: in vivo, mouse
Excerpt: Prior studies have described disease hyper-progression (HPD) occurring in response to anti-PD-1 immunotherapy, a phenomenon estimated by some authors to develop in ˜10% of all solid tumors (5). In HPD, tumor burden can dramatically increase in response to exposure to anti-PD-1 immunotherapy. Given our prior data describing a role for the tumor-intrinsic NLRP3-HSP70 signaling axis as an important driver of PMN-MDSC accumulation in distant lung tissues in response to anti-PD-1 immunotherapy, we hypothesized that this same tumor-intrinsic signaling pathway can establish an immunologic environment capable of facilitating HPD. […]
B6.Cg-Braf^tm1Mmcm Pten^tm1Hwu Tg(Tyr-cre/ERT2 H-2^b)13Bos/BosJ transgenic mice were subdermally injected with 4-Hydroxytamoxifen (4-HT) (Sigma, H6278-50MG CCF, 38.75 μg/mouse) to induce primary melanoma development at the base of the tail. […] Primary tumor volumes were monitored by orthogonal caliper measurements every 3 days. Tumor volume was calculated according to the formula: cm^3=[(length, cm)×(width, cm)^2]/2.
Small representative tissue specimens were harvested from tumors and lungs and stored in RNAlater at −80° C. […] Total RNA was isolated by RNeasy Plus Mini Kit (Qiagen, 74134) and RNA was quantified by NanoDrop. […] All data were normalized to Actb expression and relative gene expression was quantitated based on the 2ΔΔCt method. […]

[2] = system: BRAF^V600EPTEN^−/− melanoma-bearing NLRP3^−/− mice; test: Anti-PD-1 alone or with MCC950 in BRAFV600EPTEN−/− melanoma-bearing NLRP3−/− mice; assay type: in vivo, mouse
[3] = system: non-tumor-bearing mice; test: Recombinant HSP70 i.p. delivery into non-tumor-bearing mice (lung Western blot, flow cytometry); assay type: in vivo, mouse; settings: rHSP70 i.p. vs normal saline
Excerpt: (§1) Indeed, while we were able to detect soluble HSP70 as a secretion product of human melanoma cell lines, we were not able to detect the production of active IL-1β (FIGS. 12B and C). […] We have previously shown that the tumor-intrinsic NLRP3 inflammasome drives PMN-MDSC recruitment via an autocrine signaling pathway dependent on soluble HSP70 (19). […] To determine whether HSP70 could play the role of a soluble mediator in the induction of CXCR2-dependent chemokines in the distant lung, we delivered recombinant HSP70 (rHSP70) into non-tumor-bearing mice by intra-peritoneal (i.p.) injection and measured CXCL5 expression by whole lung tissue Western blot analysis as well as PMN-MDSC accumulation in the lung by flow cytometry. […] Based on these cumulative findings, we hypothesized that tumor-derived HSP70 signals through TLR4 to promote PMN-MDSC trafficking to these distant tissues. […]
Cells (1-2×10^6) were diluted in 150 μl flow buffer per well of V bottom culture plates, incubated with Live/Dead Stain (Sigma) on ice for 20 mins, washed twice, and incubated with Fc Block (anti-CD16/CD32, 2 ug/mL) before staining with appropriate conjugated antibodies. Cells were washed, resuspended in 2% paraformaldehyde for 15 mins at 4° C., and analyzed using a BD FACSCanto flow cytometry system. […]

[4] = system: CD45^−EpCAM^+ lung epithelial cells of TLR4^f/f and SPC-TLR4^−/− mice; test: rHSP70 i.p. in TLR4f/f and SPC-TLR4−/− transgenic mice, qrt-PCR of sorted lung epithelial cells; assay type: in vivo, mouse; settings: rHSP70 i.p. vs saline
Excerpt: as §1
Small representative tissue specimens were harvested from tumors and lungs and stored in RNAlater at −80° C. […] Total RNA was isolated by RNeasy Plus Mini Kit (Qiagen, 74134) and RNA was quantified by NanoDrop. […]

[5] = system: MLE12 lung epithelial cells; test: MLE12 lung epithelial cell line Western blot after rHSP70 ± TLR4 inhibitor or recombinant Wnt5a; assay type: cell-based, murine; settings: for G-CSF expression: in vitro lung epithelial cells

| Molecule | metastatic progression to the lung ([1]; MCC950 with anti-PD-1, S100β IHC and TRP2 qrt-PCR) | PMN-MDSC populations in the lung ([1]; MCC950 with anti-PD-1 vs anti-PD-1) | anti-PD-1-induced accumulation of PMN-MDSCs into lung tissues ([2]; MCC950 in combination with anti-PD-1, lung tissue and BALF) | upregulation of Wnt5a expression in lung tissues ([2]; MCC950 with anti-PD-1, Western blot) | CXCL5 expression in whole lung tissue ([3]; Western blot) | PMN-MDSC accumulation in the lung ([3]; flow cytometry) | Wnt5a and Cxcl5 expression in lung epithelial cells [4] | Wnt5a expression ([5]; MLE12 cells, rHSP70 ± TLR4 inhibitor) | G-CSF expression [5] |
| --- | --- | --- | --- | --- | --- | --- | --- | --- | --- |
| CC(C)(O)c1coc(S(=O)(=O)NC(=O)Nc2c3c(cc4c2CCC4)CCC3)c1 [MCC950] | inhibiting metastatic progression | suppress PMN-MDSC populations in the lung | largely eliminated | suppress the upregulation of Wnt5a expression in lung tissues |  |  |  |  |  |
| rHSP70: recombinant HSP70 delivered by intra-peritoneal injection or added to cells |  |  |  |  | induce CXCL5 expression | promote the accumulation of PMN-MDSCs in lung tissues | upregulated only in lung epithelial cells expressing TLR4 | induce Wnt5a expression in a TLR4-dependent manner | induce modest G-CSF upregulation |
| Wnt5a: recombinant Wnt5a (R&D Systems/Bio-techne, 645-WN-010) used to treat cell lines (protein, UniProt P22725 62-380, looked up) Protein Wnt-5a: IIGAQPLCSQLAGLSQGQKKLCHLYQDHMQYIGEGAKTGIKECQYQFRHRRWNCSTVDNTSVFGRVMQIGSRETAFTYAVSAAGVVNAMSRACREGELSTCGCSRAARPKDLPRDWLWGGCGDNIDYGYRFAKEFVDARERERIHAKGSYESARILMNLHNNEAGRRTVYNLADVACKCHGVSGSCSLKTCWLQLADFRKVGDALKEKYDSAAAMRLNSRGKLVQVNSRFNSPTTQDLVYIDPSPDYCVRNESTGSLGTQGRLCNKTSEGMDGCELMCCGRGYDQFKTVQTERCHCKFHWCCYVKCKKCTEIVDQFVCK |  |  |  |  |  |  |  |  | more immediate driver of G-CSF |
